Holding throughout (format): ADME
In one data set the target is T1, Cytochrome P450 1A2 (Homo sapiens, UniProt P05177).
T1 sequence (P05177 whole entry): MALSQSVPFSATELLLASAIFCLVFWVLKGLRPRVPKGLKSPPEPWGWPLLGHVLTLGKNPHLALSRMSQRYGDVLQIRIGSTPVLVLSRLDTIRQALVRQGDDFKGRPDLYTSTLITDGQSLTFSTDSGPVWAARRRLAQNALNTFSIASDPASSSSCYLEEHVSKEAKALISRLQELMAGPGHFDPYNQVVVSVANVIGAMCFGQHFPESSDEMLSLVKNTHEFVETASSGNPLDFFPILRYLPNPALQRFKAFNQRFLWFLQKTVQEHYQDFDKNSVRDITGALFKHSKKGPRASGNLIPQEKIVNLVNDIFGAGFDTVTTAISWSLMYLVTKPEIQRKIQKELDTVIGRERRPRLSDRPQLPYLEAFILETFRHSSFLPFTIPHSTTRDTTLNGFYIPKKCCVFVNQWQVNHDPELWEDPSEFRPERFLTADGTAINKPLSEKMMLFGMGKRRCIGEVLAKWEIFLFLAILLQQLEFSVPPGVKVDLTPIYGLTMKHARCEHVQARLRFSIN
The experiment in a line: Inhibition of CYP1A2 (unknown origin).

Another data set relates to CYP1A1 versus CYP1B1. Kind of data set: Selectivity ratio of IC50 for inhibition of CYP1A1 (unknown origin) to IC50 for inhibition of CYP1B1 (unknown origin). The settings on record: human; read-out: Ratio IC50.
Another data set concerns the target T2, Cytochrome P450 1A1 (Homo sapiens, UniProt P04798).
T2 sequence (P04798 whole entry): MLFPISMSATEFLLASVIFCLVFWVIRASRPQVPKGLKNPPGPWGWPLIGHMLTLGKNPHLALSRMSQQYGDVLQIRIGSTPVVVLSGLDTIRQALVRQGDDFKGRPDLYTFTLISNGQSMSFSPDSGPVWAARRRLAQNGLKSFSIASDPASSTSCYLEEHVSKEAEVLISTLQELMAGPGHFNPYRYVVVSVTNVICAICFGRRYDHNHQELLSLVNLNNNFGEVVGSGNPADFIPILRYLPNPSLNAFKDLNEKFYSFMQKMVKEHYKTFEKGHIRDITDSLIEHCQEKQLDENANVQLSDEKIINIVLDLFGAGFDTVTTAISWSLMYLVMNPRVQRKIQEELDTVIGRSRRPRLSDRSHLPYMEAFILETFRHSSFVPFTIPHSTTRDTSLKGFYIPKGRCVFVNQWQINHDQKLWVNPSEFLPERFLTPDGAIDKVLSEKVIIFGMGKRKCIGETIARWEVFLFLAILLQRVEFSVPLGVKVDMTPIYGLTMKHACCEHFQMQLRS
Kind of data set: Inhibition of CYP1A1 (unknown origin).

For a further data set, the target named is T3, Cytochrome P450 1B1 (Homo sapiens, UniProt Q16678).
T3 sequence (Q16678 whole entry): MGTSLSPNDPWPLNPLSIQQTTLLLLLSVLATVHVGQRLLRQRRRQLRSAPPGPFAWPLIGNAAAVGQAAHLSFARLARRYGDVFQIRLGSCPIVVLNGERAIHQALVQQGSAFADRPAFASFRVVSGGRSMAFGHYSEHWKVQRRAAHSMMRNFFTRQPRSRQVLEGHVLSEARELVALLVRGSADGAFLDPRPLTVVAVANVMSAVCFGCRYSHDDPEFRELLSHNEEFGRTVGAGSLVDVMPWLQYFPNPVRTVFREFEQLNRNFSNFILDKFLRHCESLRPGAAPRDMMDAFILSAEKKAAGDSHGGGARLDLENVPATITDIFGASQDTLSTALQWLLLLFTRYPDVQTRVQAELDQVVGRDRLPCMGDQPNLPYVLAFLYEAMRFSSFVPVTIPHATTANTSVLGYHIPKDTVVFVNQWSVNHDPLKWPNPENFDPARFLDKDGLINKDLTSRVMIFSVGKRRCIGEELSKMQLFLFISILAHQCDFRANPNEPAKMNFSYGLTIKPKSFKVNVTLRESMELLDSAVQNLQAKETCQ
The experiment in a line: Inhibition of CYP1B1 (unknown origin) by EROD assay.

The next data set has as its system CYP1A2 versus CYP1B1. The experiment in a line: Selectivity ratio of IC50 for inhibition of CYP1A2 (unknown origin) to IC50 for inhibition of CYP1B1 (unknown origin). As to conditions: human; read-out: Ratio IC50.

This is an account of results in ChEMBL document CHEMBL5329194, “Design, Synthesis, and Evaluation of 18F-Labeling CYP1B1 PET Tracer Based on 2-Phenylquinazolin” (Bioorg Med Chem Lett, 2023).

With `FCCOc1nc(-c2ccc(Br)cc2)nc2ccccc12`, the figures for the IC50 against Cytochrome P450 1A2, against Cytochrome P450 1A1 and against Cytochrome P450 1B1 were more than 1000 nM, more than 1000 nM and 47.3 nM, respectively. Besides, the selectivity ratio with CYP1A1 versus CYP1B1 and in the data set with CYP1A2 versus CYP1B1 was more than 21.1 each time.

As a reminder, the IC50 is the concentration at which inhibition is half-maximal.
